Experimental data taken from PMC8318231, “Rate-of-Kill (RoK) assays to triage large compound sets for Chagas disease drug discovery: Application to GSK Chagas Box” (PLoS Neglected Tropical Diseases, 2021).

How the values were obtained:
[1] = tested on: T. cruzi Tulahuen trypomastigotes; test: T. cruzi trypomastigote assay (Cell Titer-Glo viability, ATP luminescence); assay type: cell-based, Trypanosoma cruzi; details: for Trypomastigotes pIC50 48 hours: 48 hours incubation; for Trypomastigotes pIC50 48 hours / Trypomastigotes pIC50 72 hours: pIC50 = -log10 IC50 in molar units; for Trypomastigotes pIC50 72 hours: 72 hours incubation; for 48 pIC50 / 72 pIC50: trypomastigote assay; for 48 pIC50: 48 h; for 72 pIC50: 72 h
Protocol: T. cruzi Tulahuen trypomastigotes obtained from the supernatants of LLC-MK2 infected cultures in a 225 cm^2 T-Flasks harvested between days 5 and 8 of infection. Trypomastigotes (5 × 10^4 per well) in 50 μl of DMEM/ 2% FBS were dispensed into white 384 plates (Greiner) pre-stamped with 250 nl compound a single-shot final concentration of 5 μM, or in dose response. […] Cell Titer-Glo cell viability solution (Promega) was added to each well (50 μL) incubated at room temperature for 10 min and luminescence read by Envision plate reader (Perkin Elmer). This assay quantifies the amount of ATP present which is directly proportional to the number of metabolically active cells. All data were normalised (100% effect control for no cells and 0% effect control for DMSO). This assay was adapted from MacLean et al., 2018 [22].

TcCYP51 = details: formerly reported; cited from earlier work

SMILES | Trypomastigotes pIC50 48 hours [1] | Trypomastigotes pIC50 72 hours [1] | 48 pIC50 ([1]; figure 1A) | 72 pIC50 ([1]; figure 1A) | 72 pIC50 ([1]; figure 1B) | CYP51 pIC50 (TcCYP51)
O=S(=O)(NCC(c1cccnc1)N1CCN(c2ccc(F)cc2)CC1)c1cccs1 (stereo not drawn) [TCMDC-143542] | < 4.3 | < 4.3 | < 4.3 | < 4.3 | < 4.3 | 7.4
COc1ccc(-c2ccc3nnc(-c4ccc(O)c(OC)c4)n3c2)cn1 [TCMDC-143413] | < 4.3 | < 4.3 | < 4.3 | < 4.3 | < 4.3 | < 4
Cn1c(CN2CCN(c3ncc(C(F)(F)F)cc3Cl)CC2)nc2ccncc21 [TCMDC-143276] | < 4.3 | < 4.3 | < 4.3 | < 4.3 | < 4.3 | 7.1
Cc1cc(C)nc(N2CCC(N(Cc3cccnc3)C(=O)c3cccc(C#N)c3)CC2)n1 [TCMDC-143272] | < 4.3 | < 4.3 | < 4.3 | < 4.3 | < 4.3 | 6.9
O=C(Cn1cnc([N+](=O)[O-])n1)Nc1ccc(Cl)cc1C(=O)c1ccccc1 [TCMDC-143616] | 6 | 6 | 6 | 6 | 6 | 5
CN(C)c1ncc(-c2cncn2CCOc2ccc(Cl)cc2)cn1 [TCMDC-143415] | 4.5 | 4.5 | 4.5 | 4.5 | 4.5 | 7.3
O=C1CN(C2CCCc3c(OCc4ccncc4)cccc32)C(=O)N1C1CCCCC1 (stereo not drawn) [TCMDC-143613] | < 4.3 | < 4.3 | < 4.3 | < 4.3 | < 4.3 | 7.7
COc1ccc(C)cc1-c1csc(NC(=O)C(C)n2ccnc2)n1 (stereo not drawn) [TCMDC-143430] | < 4.3 | < 4.3 | < 4.3 | < 4.3 | < 4.3 | 7.4
O=C(Nc1cccc(F)c1)N1CCC(Oc2cccc(-c3cccnc3)c2)CC1 [TCMDC-143555] | < 4.3 | < 4.3 | < 4.3 | < 4.3 | < 4.3 | 6.8
O=C(NCc1nnc2n1CCCCC2)c1ccc(-c2ccc(F)cc2)o1 [TCMDC-143446] | < 4.3 | 4.7 | – | – | – | 4.1
Cc1ccc(C)c(-n2nnnc2Sc2nc([N+](=O)[O-])nn2C)c1 [TCMDC-143530] | 5.3 | 5.4 | – | – | – | < 4
CN(C)CCN(C)Cc1ccc(F)cc1NS(=O)(=O)c1ccc(Cl)c(Cl)c1 [TCMDC-143118] | 5.9 | 5.9 | 5.9 | 5.9 | 5.9 | < 4
COc1ccc2nc(N(Cc3cccnc3)C(=O)C3CCC3)sc2c1 [TCMDC-143437] | < 4.3 | < 4.3 | < 4.3 | < 4.3 | < 4.3 | 7.2
O=C(NCc1ccc(-n2cccc2)cc1)c1nc(Cn2ccc([N+](=O)[O-])n2)no1 [TCMDC-143103] | 6 | 5.9 | – | – | – | < 4
CC(Cn1ccnc1)NC(=O)COc1ccc(Cl)c(Cl)c1 (stereo not drawn) [TCMDC-143479] | < 4.3 | < 4.3 | < 4.3 | < 4.3 | < 4.3 | 7.2
Cn1nc([N+](=O)[O-])nc1Oc1ccc(C(=O)c2ccccc2)cc1 [TCMDC-143126] | 6 | 6.1 | – | – | – | < 4
COc1ccc(-c2nc3ccncc3c(=O)n2CCOc2ccccc2)cc1 [TCMDC-143182] | < 4.3 | < 4.3 | < 4.3 | < 4.3 | < 4.3 | 7.4
COc1ccc(-c2cc(C)no2)cc1S(=O)(=O)Nc1ccc(F)c(Cl)c1 [TCMDC-143193] | 4.8 | 4.4 | – | – | – | < 4

SMILES | Trypomastigotes pIC50 48 hours [1] | Trypomastigotes pIC50 72 hours [1] | 48 pIC50 ([1]; figure 1A) | 72 pIC50 ([1]; figure 1A) | 72 pIC50 ([1]; figure 1B) | CYP51 pIC50 (TcCYP51)
O=C(Nc1cccc(Cl)c1)N1CCCCC1c1cccnc1 (stereo not drawn) [TCMDC-143529] | < 4.3 | < 4.3 | < 4.3 | < 4.3 | < 4.3 | 7.7
Cc1ccc2nc(N(Cc3cccnc3)C(=O)CCc3ccccc3)sc2c1 [TCMDC-143553] | 4.7 | < 4.3 | – | – | – | 7.2
N#Cc1cccc(CN2CCC(N(Cc3cccnc3)C(=O)c3cc(F)c(F)cc3F)CC2)c1 [TCMDC-143178] | < 4.3 | < 4.3 | < 4.3 | < 4.3 | < 4.3 | 7.3
N#Cc1cccc(CN2CCC(c3nc(-c4ccc(C(F)(F)F)nc4)no3)CC2)c1 [TCMDC-143179] | < 4.3 | < 4.3 | < 4.3 | < 4.3 | < 4.3 | < 4
COc1ccc2nccc([C@H](O)CN3CC[C@H](NC(=O)c4ccc(Br)cc4)[C@@H](O)C3)c2n1 [TCMDC-143527] | < 4.3 | < 4.3 | < 4.3 | < 4.3 | < 4.3 | 5.2
Cc1ccc(S(=O)(=O)Cn2nnnc2C(c2cccnc2)N2CCN(c3ccccc3)CC2)cc1 (stereo not drawn) [TCMDC-143539] | < 4.3 | < 4.3 | < 4.3 | < 4.3 | < 4.3 | 6.7
Cc1ccc2sc(NC(=O)Cn3cnc([N+](=O)[O-])n3)nc2c1 [TCMDC-143284] | 5.6 | 5.3 | – | – | – | < 4
Cc1nc(N2CCC(C(=O)N3CCC(O)(c4cccnc4)CC3)CC2)nc2ccc(C(C)C)cc12 [TCMDC-143333] | 4.5 | 4.4 | – | – | – | 6.9
Clc1ccc(OCCN2CCCCC2c2cccnc2)c(Cl)c1 (stereo not drawn) [TCMDC-143235] | 4.4 | 4.4 | 4.4 | 4.4 | 4.4 | 7.2
CN(Cc1ccc(F)cc1)c1ccc(OCC(=O)N2CCCCC2c2cccnc2)nn1 (stereo not drawn) [TCMDC-143334] | < 4.3 | < 4.3 | < 4.3 | < 4.3 | < 4.3 | 7.3
O=C(Nc1ncc([N+](=O)[O-])s1)C1CC1 [TCMDC-143417] | 6.1 | 6 | – | – | – | < 4
C=CCOCC1Cn2nc([N+](=O)[O-])nc2O1 (stereo not drawn) [TCMDC-143149] | < 4.3 | < 4.3 | < 4.3 | < 4.3 | < 4.3 | < 4
Cc1ccc(NC(=O)c2ccc(Cl)c(NC(=O)c3ccc([N+](=O)[O-])cc3)c2)cc1 [TCMDC-143150] | 5.8 | 5.6 | – | – | – | < 4
O=C(Nc1ccc(Br)cn1)c1ccc(Cn2cnc([N+](=O)[O-])n2)cc1 [TCMDC-143156] | 6.1 | 6.1 | 6.1 | 6.1 | 6.1 | < 4
COc1ccc(CN2CCCCC2c2nc(-c3cccnc3)no2)cc1 (stereo not drawn) [TCMDC-143467] | < 4.3 | < 4.3 | < 4.3 | < 4.3 | < 4.3 | 6.7
Cn1nc([N+](=O)[O-])nc1N1CCCCC1 [TCMDC-143088] | < 4.3 | < 4.3 | < 4.3 | < 4.3 | < 4.3 | < 4
CN1CCN(c2nc(-c3ccc(Cl)cc3)c3c(N)n(C)nc3n2)CC1 [TCMDC-143426] | < 4.3 | < 4.3 | < 4.3 | < 4.3 | < 4.3 | < 4
CC1(C)CCC(=Cc2ccc(Cl)cc2)CC1(O)Cn1ccnc1 (stereo not drawn) [TCMDC-125222] | 5.1 | 4.8 | – | – | – | 7.3
